# Several values for one entry are separate records, joined by “and”; a condition that tells them apart may be missing. Equal entries are not always repeated. Where two headings read alike, the source gives them in different places.
# What was measured:
# [1] = target: mouse KOR, Gαi1 (Mus musculus, UniProt P33534); assay: TRUPATH BRET G protein assay, Gαi1; type: cell-based; conditions: TRUPATH; read-out: Emax (%) Gαi1
# [2] = target: T1, mouse KOR, Gαi2 (Mus musculus, UniProt P33534); assay: TRUPATH BRET G protein assay, Gαi2; type: cell-based
# T1 construct: expressed in transfected cells; host or cells: HEK293T (ATCC, CRL-3216), transient
# [3] = target: mouse KOR, Gαi3 (Mus musculus, UniProt P33534); assay: TRUPATH BRET G protein assay, Gαi3; type: cell-based; conditions: TRUPATH; read-out: Emax (%) Gαi3
# [4] = target: mouse KOR, GαoA (Mus musculus, UniProt P33534); assay: TRUPATH BRET G protein assay, GαoA; type: cell-based; conditions: TRUPATH; read-out: Emax (%) GαoA
# [5] = target: mouse KOR, GαoB (Mus musculus, UniProt P33534); assay: TRUPATH BRET G protein assay, GαoB; type: cell-based; conditions: TRUPATH; read-out: Emax (%) GαoB
# [6] = target: mouse KOR, Gαz (Mus musculus, UniProt P33534); assay: TRUPATH BRET G protein assay, Gαz; type: cell-based
# [7] = target: mouse KOR, Gαgustducin (Mus musculus, UniProt P33534); assay: TRUPATH BRET G protein assay, Gαgustducin; type: cell-based; conditions: read-out: Emax (%) Gαgustducin
# [8] = target: T2, human KOR (Homo sapiens, UniProt P41145); assay: cell-based; parameters: expressed in transfected cells; host or cells: HEK293, transient
# [9] = target: T3, human MOR (Homo sapiens, UniProt P35372); assay: [35S]GTPγS binding assay, CHO membranes; type: biochemical
# T3 construct: expressed in transfected cells
# [10] = target: T4, human DOR (Homo sapiens, UniProt P41143); assay: [35S]GTPγS binding assay, CHO membranes; type: biochemical
# T4 construct: expressed in transfected cells
# [11] = target: T5, mouse KOR (Mus musculus, UniProt P33534); assay: biochemical; type: binding; parameters: expressed in transfected cells; conditions: for specific [3H]DPN binding, normalized to 100%: replicates
# Target sequence in this assay (P33534 whole entry): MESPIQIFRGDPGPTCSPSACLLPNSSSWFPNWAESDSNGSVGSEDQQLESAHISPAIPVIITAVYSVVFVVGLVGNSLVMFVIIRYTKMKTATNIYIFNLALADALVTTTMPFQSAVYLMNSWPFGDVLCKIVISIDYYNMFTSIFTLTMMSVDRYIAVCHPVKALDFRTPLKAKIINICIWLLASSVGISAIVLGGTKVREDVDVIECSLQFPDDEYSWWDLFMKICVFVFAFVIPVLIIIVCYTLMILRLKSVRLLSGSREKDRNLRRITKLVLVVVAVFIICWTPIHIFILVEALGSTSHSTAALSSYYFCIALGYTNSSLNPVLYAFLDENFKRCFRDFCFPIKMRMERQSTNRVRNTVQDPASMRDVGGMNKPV
# [12] = target: T5, mouse KOR; assay: cell-based; parameters: expressed in transfected cells
# Target sequence in this assay (P33534 whole entry): as above
# [13] = target: T2, human KOR; assay: [35S]GTPγS binding assay, CHO membranes; type: biochemical; parameters: expressed in transfected cells; conditions: for stimulation of [35S]GTPγS binding, normalized: replicates
# [14] = target: T5, mouse KOR; assay: cell-based; parameters: expressed in transfected cells; host or cells: HEK293T, transient; conditions: for β-arrestin-2 recruitment, normalized: replicates
# Target sequence in this assay (P33534 whole entry): as above
# Target sequence in this assay (P32121 whole entry partner): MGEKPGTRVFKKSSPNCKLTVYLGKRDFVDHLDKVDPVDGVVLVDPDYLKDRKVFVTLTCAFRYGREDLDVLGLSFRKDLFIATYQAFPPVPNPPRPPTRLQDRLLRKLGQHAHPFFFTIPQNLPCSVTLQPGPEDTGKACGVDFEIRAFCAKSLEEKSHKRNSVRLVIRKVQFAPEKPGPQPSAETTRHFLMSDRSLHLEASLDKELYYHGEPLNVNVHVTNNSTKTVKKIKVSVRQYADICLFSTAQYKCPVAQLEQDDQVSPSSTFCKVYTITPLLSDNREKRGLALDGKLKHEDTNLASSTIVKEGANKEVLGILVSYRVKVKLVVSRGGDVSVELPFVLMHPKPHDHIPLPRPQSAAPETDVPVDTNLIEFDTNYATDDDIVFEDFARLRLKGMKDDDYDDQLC
# [15] = target: T6, human KOR WT (Homo sapiens, UniProt P41145); assay: cAMP inhibition assay normalized to salvinorin A; type: cell-based
# T6 construct: FLAG; expressed in transfected cells; host or cells: HEK293T, transient
# [16] = target: T6, human KOR WT; type: cell-based
# [17] = target: T7, human KOR E209A (Homo sapiens, UniProt P41145, E209A); type: cell-based
# T7 construct: FLAG; expressed in transfected cells; host or cells: HEK293 / HEK293T, transient
# [18] = target: T8, human KOR E297A (Homo sapiens, UniProt P41145, E297A); type: cell-based
# T8 construct: FLAG; expressed in transfected cells; host or cells: HEK293T
# [19] = target: T9, human KOR L309A (Homo sapiens, UniProt P41145, L309A); type: cell-based
# T9 construct: FLAG; expressed in transfected cells; host or cells: HEK293T
# [20] = target: T6, human KOR WT; assay: BRET β-arrestin-2 biosensor assay; type: cell-based
# [21] = target: T7, human KOR E209A; assay: BRET β-arrestin-2 biosensor assay; type: cell-based
# [22] = target: T8, human KOR E297A; assay: BRET β-arrestin-2 biosensor assay; type: cell-based
# [23] = target: T9, human KOR L309A; assay: BRET β-arrestin-2 biosensor assay; type: cell-based
# [24] = human
# Protocol: (§1) Blood was drawn from healthy volunteers devoid of any medication for 14 days from the antecubital vein using 21 G needles and collected in a serum clot activator tube (4 mL tubes, Greiner bio-one). […] Volunteers gave written informed consent before blood donation. […] Blood samples were collected into Vacuette® clot activator tubes (Greiner Bio-One, Austria). After clotting of about 2 h, the samples were centrifuged at 2200 × g for 15 min at 22 °C. The serum was removed and centrifuged again to remove lipids and cell particles at 16,000 × g at 4 °C for 20 min. […] The samples were incubated at 37 °C under continuous shaking at 300 rotations-per-minute. […] The samples were mixed well and incubated on ice for 10 min. For the protein precipitation, 30 µL of a 20% (w/v) trichloroacetic acid was added and incubated on ice for 15 min. The clear supernatant was harvested by centrifugation at 16,000 × g at 4 °C for 20 min and this sample was used for HPLC analysis. The chromatography HPLC system was a ThermoFisher Ultimate 3000 equipped with a pump, autosampler and single wavelength detector. […] The remaining peptide was calculated relative to the AUC at time point zero. The data points were fitted to a one-phase decay function and to determine the resulting half-life of the peptide in serum.
# (§2) 0.1% trifluoroacetic acid in water and acetonitrile/water trifluoroacetic acid 90/10/0.1% (v/v/v) with a
# linear separation gradient over 30 min.
# [25] = in vitro; conditions: human, serum, serum stability, amount remaining, Figure S15
# Protocol: as §1, §2
# linear separation gradient over 30 min.
# T1 sequence (P33534 whole entry): as the sequence (P33534 whole entry) above
# T4 sequence (P41143 whole entry): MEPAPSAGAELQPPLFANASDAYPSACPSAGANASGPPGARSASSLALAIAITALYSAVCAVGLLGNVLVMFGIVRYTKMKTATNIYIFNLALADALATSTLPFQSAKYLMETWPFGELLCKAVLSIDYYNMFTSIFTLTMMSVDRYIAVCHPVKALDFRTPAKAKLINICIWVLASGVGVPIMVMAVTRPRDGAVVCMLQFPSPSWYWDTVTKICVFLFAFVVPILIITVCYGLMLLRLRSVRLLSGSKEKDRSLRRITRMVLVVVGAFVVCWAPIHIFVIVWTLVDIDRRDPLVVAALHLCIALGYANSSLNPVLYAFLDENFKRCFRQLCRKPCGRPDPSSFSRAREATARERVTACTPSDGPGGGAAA
# T6 sequence (P41145 whole entry): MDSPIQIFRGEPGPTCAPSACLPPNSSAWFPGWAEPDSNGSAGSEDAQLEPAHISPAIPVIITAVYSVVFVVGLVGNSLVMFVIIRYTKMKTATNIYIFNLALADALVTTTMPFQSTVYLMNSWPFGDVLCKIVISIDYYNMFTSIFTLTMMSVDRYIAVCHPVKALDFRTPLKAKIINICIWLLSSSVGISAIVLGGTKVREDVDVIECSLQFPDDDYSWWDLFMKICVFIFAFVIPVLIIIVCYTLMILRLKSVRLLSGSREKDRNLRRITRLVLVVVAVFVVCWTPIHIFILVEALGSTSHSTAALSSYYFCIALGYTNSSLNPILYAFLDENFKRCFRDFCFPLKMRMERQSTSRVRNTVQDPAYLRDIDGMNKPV
# T2 sequence (P41145 whole entry): as above
# Sequence of mouse KOR, Gαz (P33534 whole entry): as the sequence (P33534 whole entry) above
# Sequence of mouse KOR, Gαz (P19086 2-355 partner): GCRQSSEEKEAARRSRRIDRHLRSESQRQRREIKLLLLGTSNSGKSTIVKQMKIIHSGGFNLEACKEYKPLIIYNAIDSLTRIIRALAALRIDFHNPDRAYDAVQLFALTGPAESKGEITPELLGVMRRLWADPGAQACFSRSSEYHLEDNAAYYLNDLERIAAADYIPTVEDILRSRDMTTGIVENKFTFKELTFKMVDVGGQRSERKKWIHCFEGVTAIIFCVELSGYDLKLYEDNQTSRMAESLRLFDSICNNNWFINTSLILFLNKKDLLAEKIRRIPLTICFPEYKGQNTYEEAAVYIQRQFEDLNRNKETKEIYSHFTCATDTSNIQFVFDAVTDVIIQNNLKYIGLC
# T8 sequence (P41145 whole entry E297A): as the sequence (P41145 whole entry) above, with E297A counted along it
# T9 sequence (P41145 whole entry L309A): as the sequence (P41145 whole entry) above, with L309A counted along it
# T7 sequence (P41145 whole entry E209A): as the sequence (P41145 whole entry) above, with E209A counted along it
# T3 sequence (P35372 whole entry): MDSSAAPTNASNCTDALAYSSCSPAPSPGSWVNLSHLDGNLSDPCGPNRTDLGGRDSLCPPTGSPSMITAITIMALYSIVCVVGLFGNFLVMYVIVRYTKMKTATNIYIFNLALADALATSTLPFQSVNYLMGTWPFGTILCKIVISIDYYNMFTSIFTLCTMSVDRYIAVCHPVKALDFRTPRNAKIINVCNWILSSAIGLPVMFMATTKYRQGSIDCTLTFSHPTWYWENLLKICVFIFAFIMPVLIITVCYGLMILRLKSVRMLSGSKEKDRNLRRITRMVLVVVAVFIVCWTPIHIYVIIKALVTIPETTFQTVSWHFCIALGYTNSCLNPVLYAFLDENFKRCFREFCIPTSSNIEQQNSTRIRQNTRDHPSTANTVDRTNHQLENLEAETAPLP
# Sequence of mouse KOR, Gαgustducin (P33534 whole entry): as the sequence (P33534 whole entry) above
# Sequence of mouse KOR, Gαgustducin (A8MTJ3 2-354 partner): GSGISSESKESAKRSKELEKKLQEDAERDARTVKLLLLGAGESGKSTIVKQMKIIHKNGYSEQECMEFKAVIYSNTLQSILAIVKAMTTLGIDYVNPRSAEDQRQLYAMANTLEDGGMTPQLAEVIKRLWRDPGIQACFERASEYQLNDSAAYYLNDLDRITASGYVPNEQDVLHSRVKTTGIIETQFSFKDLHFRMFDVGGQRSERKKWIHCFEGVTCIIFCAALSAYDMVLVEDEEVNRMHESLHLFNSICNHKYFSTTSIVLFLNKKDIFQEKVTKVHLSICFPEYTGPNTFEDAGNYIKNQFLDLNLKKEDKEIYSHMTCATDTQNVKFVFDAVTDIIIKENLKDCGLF
# Sequence of mouse KOR, Gαi1 (P33534 whole entry): as the sequence (P33534 whole entry) above
# Sequence of mouse KOR, Gαi1 (P63096 2-354 partner): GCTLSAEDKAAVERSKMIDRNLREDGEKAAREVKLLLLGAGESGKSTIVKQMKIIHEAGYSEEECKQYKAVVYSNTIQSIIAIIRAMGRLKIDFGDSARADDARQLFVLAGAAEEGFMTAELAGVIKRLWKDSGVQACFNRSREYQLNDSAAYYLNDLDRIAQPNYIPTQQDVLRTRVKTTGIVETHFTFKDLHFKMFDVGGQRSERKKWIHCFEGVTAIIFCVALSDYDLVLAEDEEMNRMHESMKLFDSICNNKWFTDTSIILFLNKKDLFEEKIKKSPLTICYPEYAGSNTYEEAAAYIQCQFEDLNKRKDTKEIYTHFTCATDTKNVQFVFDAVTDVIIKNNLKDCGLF
# Sequence of mouse KOR, GαoA (P33534 whole entry): as the sequence (P33534 whole entry) above
# Sequence of mouse KOR, GαoA (P09471 2-354 partner): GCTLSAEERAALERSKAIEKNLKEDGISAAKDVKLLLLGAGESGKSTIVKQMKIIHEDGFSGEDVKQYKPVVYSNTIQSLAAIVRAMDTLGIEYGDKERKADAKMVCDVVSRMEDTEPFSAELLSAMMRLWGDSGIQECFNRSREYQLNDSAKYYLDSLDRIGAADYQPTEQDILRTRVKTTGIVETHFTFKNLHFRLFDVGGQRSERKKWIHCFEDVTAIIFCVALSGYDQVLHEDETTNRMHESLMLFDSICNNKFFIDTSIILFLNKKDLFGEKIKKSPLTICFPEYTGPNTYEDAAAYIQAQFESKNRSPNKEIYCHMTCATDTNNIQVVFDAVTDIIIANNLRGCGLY
# Sequence of mouse KOR, Gαi3 (P33534 whole entry): as the sequence (P33534 whole entry) above
# Sequence of mouse KOR, Gαi3 (P08754 2-354 partner): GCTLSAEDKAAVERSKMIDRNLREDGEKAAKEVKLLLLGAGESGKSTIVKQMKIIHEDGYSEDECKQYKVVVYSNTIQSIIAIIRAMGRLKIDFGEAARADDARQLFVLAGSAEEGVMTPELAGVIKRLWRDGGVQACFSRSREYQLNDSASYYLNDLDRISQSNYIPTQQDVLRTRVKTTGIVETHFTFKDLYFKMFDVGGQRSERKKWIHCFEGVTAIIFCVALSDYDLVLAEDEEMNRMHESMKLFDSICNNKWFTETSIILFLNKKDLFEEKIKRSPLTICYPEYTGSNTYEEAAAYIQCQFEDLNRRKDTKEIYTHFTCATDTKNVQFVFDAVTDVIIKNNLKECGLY
# Sequence of mouse KOR, GαoB (P33534 whole entry): as the sequence (P33534 whole entry) above
# Sequence of mouse KOR, GαoB (P09471 2-354 partner): as the sequence (P09471 2-354 partner) above
smiles,measurement,setting,value
O=C(NC1C=CC2C3Cc4ccc(O)c5c4C2(CCN3CC2CC2)C1O5)c1cccc(I)c1 (stereo not shown) [MP1104],Emax,[1],100 ± 4%
same,potency (log EC50) Gαi2,[2]; Fig. 3i spider plot,-9.607
same,"Gαi2, normalized response (single replicate values)",[2]; Log [ligand] (M) -5,68.8651 and 55.859 and 33.3938 and 78.3335 and 54.4028 and 51.6416 and 70.9702 and 67.6827
same,"Gαi2, normalized response (single replicate values)",[2]; Log [ligand] (M) -6,66.5004 and 68.8651 and 52.3118 and 47.96 and 45.1988 and 59.9253 and 82.9355 and 80.6889
same,"Gαi2, normalized response (single replicate values)",[2]; Log [ligand] (M) -7,70.0475 and 61.7708 and 39.3057 and 73.7314 and 51.6416 and 42.4375 and 78.3335 and 51.1294
same,"Gαi2, normalized response (single replicate values)",[2]; Log [ligand] (M) -8,83.0537 and 70.0475 and 49.9471 and 81.0947 and 82.9355 and 89.3784 and 101.344 and 61.7708
same,"Gαi2, normalized response (single replicate values)",[2]; Log [ligand] (M) -9,49.9471 and 40.488 and 71.2299 and 59.0049 and 80.1743 and 78.3335 and 46.1192 and 33.3938
same,"Gαi2, normalized response (single replicate values)",[2]; Log [ligand] (M) -10,20.3876 and 60.5885 and 12.111 and 42.4375 and 46.1192 and 22.1885 and 25.8702 and 19.2052
same,"Gαi2, normalized response (single replicate values)",[2]; Log [ligand] (M) -11,-28.0899 and -9.172 and -25.7252 and 25.8702 and -9.105 and 27.711 and -46.8421 and 9.7462
same,"Gαi2, normalized response (single replicate values)",[2]; Log [ligand] (M) -12,21.57 and -2.078 and 28.6643 and 3.78 and 2.86 and 9.303 (2×) and 6.199
same,Emax,[2]; TRUPATH,65 ± 6%
same,Gαi2 (Figure 3j),"[2]; source data of Figure 3j, U50,488 about 100",64.9839
same,Emax,[3],85 ± 3%
same,Emax,[4],87 ± 7%
same,Emax,[5],101 ± 8%
same,highest potency,[6]; Gαz subtype,picomolar range
same,Emax,[6]; TRUPATH,101 ± 3%
same,Emax,[7],95 ± 5%
same,potency (log EC50) β-arrestin-2,[8],-8.493
same,β-arrestin-2 (Figure 3j),[8],91
same,Emax,"[8]; HEK293, read-out: Emax β-arrestin-1 recruitment",91 ± 8%
"C=CCN1CC[C@]23c4c5ccc(O)c4O[C@H]2[C@H](N)CC[C@@]3(O)[C@H]1C5 [β-NalA, β-naloxamine]","agonist response at MOR, Figure S13a",[9]; Log [ligand] (M) -9,0.0
same,EC50 (M) MOR,[9]; [35S]GTPγS,no stimulation up to 10 µM
same,"agonist response at DOR, Figure S13b",[10]; Log [ligand] (M) -5,29.5 and 25.6
same,"agonist response at DOR, Figure S13b",[10]; Log [ligand] (M) -5.5,26.4 and 22
same,"agonist response at DOR, Figure S13b",[10]; Log [ligand] (M) -6.5,11.6 and 22.3
same,"agonist response at DOR, Figure S13b",[10]; Log [ligand] (M) -7,11.8 and 10.9 and 6.8
same,EC50 (M) DOR,[10]; [35S]GTPγS,no stimulation up to 10 µM
same,Ki,[11],72 nM
same,"specific [3H]DPN binding, normalized to 100%",[11]; Log [ligand] (M) -5,4.737 and -0.7945 and 2.618
same,"specific [3H]DPN binding, normalized to 100%",[11]; Log [ligand] (M) -5.5,7.624 and 1.593 and 6.477
same,"specific [3H]DPN binding, normalized to 100%",[11]; Log [ligand] (M) -6,15.6906 and 8.934 and 15.8979
same,"specific [3H]DPN binding, normalized to 100%",[11]; Log [ligand] (M) -6.5,35.1232 and 21.428 and 37.6169
same,"specific [3H]DPN binding, normalized to 100%",[11]; Log [ligand] (M) -7,55.6281 and 51.2816 and 59.6036
same,"specific [3H]DPN binding, normalized to 100%",[11]; Log [ligand] (M) -7.5,78.1171 and 80.8645 and 81.4583
same,"specific [3H]DPN binding, normalized to 100%",[11]; Log [ligand] (M) -8,95.8025 and 95.1499 and 93.7293
same,"specific [3H]DPN binding, normalized to 100%",[11]; Log [ligand] (M) -8.5,97.8462 and 101.481 and 96.8345
same,"specific [3H]DPN binding, normalized to 100%",[11]; Log [ligand] (M) -9,98.6307 and 97.8789 and 97.5636
same,"specific [3H]DPN binding, normalized to 100%",[11]; Log [ligand] (M) -9.5,100
same,EC50,[12],130 nM
same,Emax,"[12]; HEK-293T, read-out: Emax cAMP assay",61%
same,EC50,[13],150 nM
same,Emax,[13],22%
same,"stimulation of [35S]GTPγS binding, normalized",[13]; Log [ligand] (M) -5,26.3 and 15.7 and 17.2
same,"stimulation of [35S]GTPγS binding, normalized",[13]; Log [ligand] (M) -6,26.7 and 25.9 and 13
same,"stimulation of [35S]GTPγS binding, normalized",[13]; Log [ligand] (M) -6.5,25.5 and 13.8
same,"stimulation of [35S]GTPγS binding, normalized",[13]; Log [ligand] (M) -7,15.4 and 11.8 and 3.2
same,"stimulation of [35S]GTPγS binding, normalized",[13]; Log [ligand] (M) -7.5,4.1
same,"stimulation of [35S]GTPγS binding, normalized",[13]; Log [ligand] (M) -8,17.5 and 5.8 and 1.8
same,"stimulation of [35S]GTPγS binding, normalized",[13]; Log [ligand] (M) -8.5,4
same,"stimulation of [35S]GTPγS binding, normalized",[13]; Log [ligand] (M) -9,20.6 and 20.7 and 0
same,"stimulation of [35S]GTPγS binding, normalized",[13]; Log [ligand] (M) -10,8.5 and 3.1 and 0.3
same,"stimulation of [35S]GTPγS binding, normalized",[13]; Log [ligand] (M) -11,8.8 and 6 and 1
same,"stimulation of [35S]GTPγS binding, normalized",[13]; Log [ligand] (M) -12,2
same,EC50,[14],15 nM
same,β-arrestin-3 (Figure 3j),[14],50.66
same,Emax,"[14]; HEK-293T, read-out: Emax β-arrestin-2 recruitment",51%
same,"β-arrestin-2 recruitment, normalized",[14]; Log [ligand] (M) -5,75.0642 and 33.7213 and 53.9146
same,"β-arrestin-2 recruitment, normalized",[14]; Log [ligand] (M) -6,47.1252 and 26.1295 and 56.8071
same,"β-arrestin-2 recruitment, normalized",[14]; Log [ligand] (M) -7,55.6969 and 39.8004 and 43.7179
same,"β-arrestin-2 recruitment, normalized",[14]; Log [ligand] (M) -8,23.8448 and 3.34 and 20.2841
same,"β-arrestin-2 recruitment, normalized",[14]; Log [ligand] (M) -9,18.9925 and 16.6241
same,"β-arrestin-2 recruitment, normalized",[14]; Log [ligand] (M) -10,9.149 and -15.1009 and 26.0906
CC[C@H](C)[C@H](NC(=O)[C@H](CCCN=C(N)N)NC(=O)[C@H](CCCN=C(N)N)NC(=O)[C@H](CC(C)C)NC(=O)[C@H](Cc1ccccc1)NC(=O)CNC(=O)CNC(=O)[C@@H](N)Cc1ccc(O)cc1)C(=O)N[C@@H](CCCN=C(N)N)C(=O)N1CCC[C@H]1C(=O)N[C@@H](CCCCN)C(=O)N[C@@H](CC(C)C)C(=O)N[C@@H](CCCCN)C(N)=O [dynA1-13],EC50,[15],0.00501 nM
same,EC50,[16],0.0437 nM
same,EC50,[17],0.148 nM
same,EC50,[18],0.204 nM
same,EC50,[19],0.0302 nM
same,EC50,[20],0.617 nM
same,EC50,[21],6.61 nM
same,EC50,[22],7.94 nM
same,EC50,[23],1.32 nM
same,"serum stability, amount remaining, Figure S15",[24],100
same,"serum stability, amount remaining, Figure S15",[24]; 40 min,30
same,"serum stability, amount remaining, Figure S15",[24]; 1 h,6
same,remaining at 5 min,[25],106%
same,remaining at 10 min,[25],85%
same,remaining at 20 min,[25],66%
same,remaining at 40 min,[25],33%
same,remaining at 1 h,[25],7%
same,remaining at 2 h,[25],2%
same,remaining at 4 h,[25],0%
same,remaining at 6 h,[25],0.1%
same,remaining at 24 h,[25],0.1%
same,remaining at 48 h,[25],5%
same,EC50,[12],4.9 ± 1.8 nM
same,EC50,[14]; EC50 β-arrestin-2 recruitment,31 nM
same,EC50,[14]; potency (log EC50) β-arrestin-3,31 nM

# — publication PMC10698194 (Nature Communications, 2023)
